Source: US20220378707A1, “1-(((2S,3S,4S)-3-ETHYL-4-FLUORO-5-OXOPYRROLIDIN-2-YL)METHOXY)-7-METHOXYISOQUINOLINE-6-CARBOXAMIDE COMBINATIONS AND ORAL DOSAGE FORMS” (Pfizer Inc., priority 2019, published 2022)
“Also recorded” adds a separate entry of the source.

Test system: bronchial epithelial cells and HDFn+(TNFα and IL-4)
Test: BioMAP BF4T system
Assay type: cell-based, human
Conditions: Th2 airway inflammation; tofacitinib 37-1000 nM
Description: The BioMAP systems consist of human primary cell-based systems designed to model different aspects of the human body in an in vitro format. The 12 systems tested characterized the test compounds across a broad set of systems modeling various human disease states. BioMAP systems were constructed with one or more primary cell types from healthy human donors, with stimuli (such as cytokines or growth factors) added to capture relevant signaling networks that naturally occur in human tissue or pathological conditions. Vascular biology was modeled in both a Th1 (3C system) and a Th2 (4H system) inflammatory environment, as well as in a Th1 inflammatory state specific to arterial smooth muscle cells (CASM3C system). […]
Systems were derived from either single cell types or co-culture systems. […] Test agents were prepared in DMSO (final concentration <0.1%) and were added 1 hour before stimulation, and remained in culture for 24 hours or as otherwise indicated (48-hrs, MyoF system; 72-hrs, BT system (soluble readouts); 168-hrs, BT system (secreted IgG)). […] Soluble factors from supernatants were quantified using either HTRF® detection, bead-based multiplex immunoassay or capture ELISA. Overt adverse effects of test agents on cell proliferation and viability (cytotoxicity) were detected by sulforhodamine B (SRB) staining, for adherent cells, and alamarBlue® reduction for cells in suspension.

Compound: C[C@@H]1CCN(C(=O)CC#N)C[C@@H]1N(C)c1ncnc2[nH]ccc12 [tofacitinib, 3-((3R,4R)-4-Methyl-3-(methyl(7H-pyrrolo[2,3-d]pyrimidin-4-yl)amino)piperidin-1-yl)-3-oxopropanenitrile]
- Increased biomarker readouts in the BF4T system: MMP9
- Inhibition of biomarker readouts in the BF4T system: active over all tested concentrations; also recorded: Eot3, and VCAM-1
